Usually IC50 stands for the midpoint of a concentration-inhibition curve. Higher therefore signals weaker potency.

IC50 data for 18 compounds are collected here from US20220153734A1, “Pyrazolopyridine Compounds For IRE1 Inhibition” (Optikira, LLC, priority 2019, published 2022).

One assay concerns the target T1, IRE1α (Homo sapiens, UniProt O75460).
T1 construct: purchased Signal Chem E31-11G
Kind of assay: Biochemical assay: inhibition of RNase activity of IRE1α. Particulars: enzyme 0.325 nM, substrate 100 nM, 20 minutes. The protocol: Biochemical Assay: Inhibition of RNase Activity of IRE1α
The RNase reactions were performed in 384 well black ProxiPlate-384 Plus plates (PERKIN Elmer) using 50 mM Tris assay buffer with 0.5 mM MgCl2, 10 mM KCl, 0.03% Tween, 2 mM DTT and 1% DMSO. Test compounds were prepared on the day of assay and dispensed using D300 digital dispenser as a 10-point ½ log dilution series in duplicate, normalized to a final DMSO concentration of […]. Test compounds were pre-incubated for 30 min at room temperature with IRE1α kinase (E31-11G from Signal Chem) in 2.5 μL of assay buffer. Then 2.5 μl of assay buffer containing substrate (5′ Alexa Fluor 647-rCrArU rGrUrC rCrGrC rArGrC rGrCrArUrG-Iowa Black RQ quencher 3′) added, giving a final concentration of enzyme of 0.325 nM and of substrate of 100 nM. After 20 minutes incubation at room temperature the reactions were stopped by added 5 μL of 5M urea, incubated at room temperature for 10 minutes and fluorescence measured on a plate reader (EnVision, PerkinElmer). IC50 values calculated by fitting a sigmoidal curve to percent inhibition of control versus compound concentration.

Assay [1] has as its system ARPE-19 cells stably expressing XBP1 (a.a. 1-376). Kind of assay: Cellular XBP1 splicing assay (NanoLuc luciferase, thapsigargin). It is filed as cell-based. Particulars: thapsigargin 150 nM. The protocol: Cellular XBP1 Splicing Assay
ARPE-19 cells stably expressing XBP1 (a.a. 1-376) with nano-luciferase gene sequence linked so it is in frame when XBP1 is spliced, were cultured in F12 media, 10% FBS, 0.044% sodium bicarbonate, 150 μg/ml hygromycin B and seeded for assays at 5,000 cells in 384 well plates in culture media without hygromycin B and incubated at 37° C./5% CO2. After overnight incubation test compounds were added to the cell plate in a 10-point ½ log dilution series in duplicate (final DMSO concentration 0.117%). After further incubation of 30 minutes thapsigargin was added (final concentration 150 nM) and then another 4 hour incubation. A NanoLuc luciferase assay (Promega) was used according to the manufacturer's instructions to detect the luciferase and luminescence measured on a luminometer (EnVision, PerkinElmer). IC50 values calculated by fitting a sigmoidal curve to percent inhibition of control of compound concentration.

T1 sequence (O75460 468-977 limits assumed): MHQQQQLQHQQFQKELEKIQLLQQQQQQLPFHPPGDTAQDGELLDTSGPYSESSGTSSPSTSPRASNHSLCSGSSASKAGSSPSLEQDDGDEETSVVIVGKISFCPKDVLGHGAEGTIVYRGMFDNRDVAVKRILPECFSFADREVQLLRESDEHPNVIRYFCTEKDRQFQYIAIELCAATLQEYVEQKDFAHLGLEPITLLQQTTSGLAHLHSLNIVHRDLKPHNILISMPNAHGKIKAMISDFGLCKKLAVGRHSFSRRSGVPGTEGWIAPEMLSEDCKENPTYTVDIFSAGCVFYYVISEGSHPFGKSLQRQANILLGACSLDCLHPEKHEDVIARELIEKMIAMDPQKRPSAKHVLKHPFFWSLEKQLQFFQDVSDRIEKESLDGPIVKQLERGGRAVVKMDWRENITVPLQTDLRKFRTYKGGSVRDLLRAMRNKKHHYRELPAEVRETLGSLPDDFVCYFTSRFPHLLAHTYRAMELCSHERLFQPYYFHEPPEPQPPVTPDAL

As for `CC(C)n1nc(-c2ccc(NS(=O)(=O)Cc3ccccc3Cl)c(F)c2)c2c(N)ncc([C@H]3CC[C@H](NC4COC4)CC3)c21` [Compound A39, N-(4-(4-amino-1-isopropyl-7-((1r,4r)-4-(oxetan-3-ylamino)cyclohexyl)-1H-pyrazolo[4,3-c]pyridin-3-yl)-2-fluorophenyl)-1-(2-chlorophenyl)methanesulfonamide], the IC50 is 0.0003 µM against IRE1α and 0.0017 µM in assay [1] (Homo sapiens, ARPE-19, 4 h).
Regarding `CCn1nc(-c2cc(F)c(NS(=O)(=O)c3ccccc3F)cc2F)c2c(N)ncc(C3=CCC(NC4COC4)CC3)c21` (stereo not drawn) [Compound B30, N-(4-(4-amino-1-ethyl-7-(4-(oxetan-3-ylamino)cyclohex-1-en-1-yl)-1H-pyrazolo[4,3-c]pyridin-3-yl)-2,5-difluorophenyl)-2-fluorobenzenesulfonamide], the IC50 against IRE1α is 0.082 µM; in assay [1] (Homo sapiens, ARPE-19, 4 h), 0.74 µM.
For the compound `CC(C)n1nc(-c2cc(F)c(NS(=O)(=O)c3ccccc3Cl)cc2F)c2c(N)ncc(C3=CCC(NC4COC4)CC3)c21` (single isomer, unassigned) [Compound B11, N-(4-(4-amino-1-isopropyl-7-(4-(oxetan-3-ylamino)cyclohex-1-en-1-yl)-1H-pyrazolo[4,3-c]pyridin-3-yl)-2,5-difluorophenyl)-2-chlorobenzenesulfonamide], the half-maximal inhibitory concentration (IC50) on IRE1α amounted to 0.034 µM; in assay [1] (4 hour) it was 0.5 µM.
Taken in the same sequence, the figures for `CCn1nc(-c2ccc(NS(=O)(=O)c3ccccc3F)c(F)c2)c2c(N)ncc(C3=CCC(NC4COC4)CC3)c21` (single isomer, unassigned) [Compound B34, N-(4-(4-amino-1-ethyl-7-(4-(oxetan-3-ylamino)cyclohex-1-en-1-yl)-1H-pyrazolo[4,3-c]pyridin-3-yl)-2-fluorophenyl)-2-fluorobenzenesulfonamide] were 0.1 µM and 0.4 µM.
Taken in the same sequence, the figures for `CC(CF)NC1CC=C(c2cnc(N)c3c(-c4ccc(NS(=O)(=O)c5ccccc5Cl)c(F)c4)nn(C(C)C)c23)CC1` (single isomer, unassigned) [Compound B41, N-(4-(4-amino-7-(4-((1-fluoropropan-2-yl)amino)cyclohex-1-en-1-yl)-1-isopropyl-1H-pyrazolo[4,3-c]pyridin-3-yl)-2-fluorophenyl)-2-chlorobenzenesulfonamide] were 0.0061 µM and 0.01 µM.
In the case of `COCCN[C@H]1CC[C@H](c2cnc(N)c3c(-c4cc(F)c(NS(=O)(=O)c5ccc(F)c(OC)c5)cc4F)nn(C(C)C)c32)CC1` [Compound A13, N-(4-(4-amino-1-isopropyl-7-((1r,4r)-4-((2-methoxyethyl)amino)cyclohexyl)-1H-pyrazolo[4,3-c]pyridin-3-yl)-2,5-difluorophenyl)-4-fluoro-3-methoxybenzenesulfonamide], the IC50 at IRE1α came to 0.017 µM; in assay [1] (Homo sapiens, ARPE-19, 4 h) it was 0.078 µM.
`CC(C)n1nc(-c2ccc(NS(=O)(=O)Cc3ccccc3Cl)c(F)c2)c2c(N)ncc(C3=CCC(NC4CC(F)(F)C4)CC3)c21` (single isomer, unassigned) [Compound B48, N-(4-(4-amino-7-(4-((3,3-difluorocyclobutyl)amino)cyclohex-1-en-1-yl)-1-isopropyl-1H-pyrazolo[4,3-c]pyridin-3-yl)-2-fluorophenyl)-1-(2-chlorophenyl)methanesulfonamide]: the IC50 against IRE1α stood at 0.0013 µM; in assay [1] (4 hour) it was 0.013 µM.
On to `CC(F)CNC1CC=C(c2cnc(N)c3c(-c4ccc(NS(=O)(=O)c5ccccc5Cl)c(F)c4)nn(C(C)C)c23)CC1` (single isomer, unassigned) [Compound B46, N-(4-(4-amino-7-(4-((2-fluoropropyl)amino)cyclohex-1-en-1-yl)-1-isopropyl-1H-pyrazolo[4,3-c]pyridin-3-yl)-2-fluorophenyl)-2-chlorobenzenesulfonamide], for which the IC50 at IRE1α amounted to 0.0047 µM; in assay [1] (Homo sapiens, ARPE-19, 4 h), 0.022 µM.
Taken in the same sequence, the figures for `COCCN[C@H]1CC[C@H](c2cnc(N)c3c(-c4cc(F)c(NS(=O)(=O)c5ccc(F)cc5F)cc4F)nn(C(C)C)c32)CC1` [Compound A24, N-(4-(4-amino-1-isopropyl-7-((1r,4r)-4-((2-methoxyethyl)amino)cyclohexyl)-1H-pyrazolo[4,3-c]pyridin-3-yl)-2,5-difluorophenyl)-2,4-difluorobenzenesulfonamide] were 0.0054 µM and 0.082 µM.
`CCn1nc(-c2cc(F)c(NS(=O)(=O)c3ccccc3Cl)cc2F)c2c(N)ncc(C3=CCC(NC4COC4)CC3)c21` (stereo not drawn) [Compound B31, N-(4-(4-amino-1-ethyl-7-(4-(oxetan-3-ylamino)cyclohex-1-en-1-yl)-1H-pyrazolo[4,3-c]pyridin-3-yl)-2,5-difluorophenyl)-2-chlorobenzenesulfonamide]: the concentration for half-maximal inhibition (IC50) at IRE1α was 0.047 µM; in assay [1] (Homo sapiens, ARPE-19, 4 h), 0.13 µM.
Consider `CC(F)CNC1CC=C(c2cnc(N)c3c(-c4ccc(NS(=O)(=O)Cc5ccccc5Cl)c(F)c4)nn(C(C)C)c23)CC1` (single isomer, unassigned) [Compound B42, N-(4-(4-amino-7-(4-((2-fluoropropyl)amino)cyclohex-1-en-1-yl)-1-isopropyl-1H-pyrazolo[4,3-c]pyridin-3-yl)-2-fluorophenyl)-1-(2-chlorophenyl)methanesulfonamide], for which the IC50 at IRE1α was determined as 0.0017 µM; in assay [1] (4 hour) it was 0.018 µM.
Take `COCCN[C@H]1CC[C@H](c2cnc(N)c3c(-c4cc(F)c(NS(=O)(=O)c5ccc(Cl)cc5)cc4F)nn(C(C)C)c32)CC1` [Compound A14, N-(4-(4-amino-1-isopropyl-7-((1r,4r)-4-((2-methoxyethyl)amino)cyclohexyl)-1H-pyrazolo[4,3-c]pyridin-3-yl)-2,5-difluorophenyl)-4-chlorobenzenesulfonamide]: the IC50 worked out at 0.021 µM against IRE1α and 0.24 µM in assay [1] (Homo sapiens, ARPE-19, 4 h).
Taken in the same sequence, the figures for `COCCN[C@H]1CC[C@H](c2cnc(N)c3c(-c4cc(F)c(NS(=O)(=O)c5ccccc5OC)cc4F)nn(C(C)C)c32)CC1` [Compound A10, N-(4-(4-amino-1-isopropyl-7-((1r,4r)-4-((2-methoxyethyl)amino)cyclohexyl)-1H-pyrazolo[4,3-c]pyridin-3-yl)-2,5-difluorophenyl)-2-methoxybenzenesulfonamide] were 0.24 µM and 0.019 µM.
Taken in the same sequence, the figures for `CC(C)n1nc(-c2ccc(NS(=O)(=O)c3ccccc3Cl)c(F)c2)c2c(N)ncc(C3=CCC(NCCF)CC3)c21` (stereo not drawn) [Compound B63, N-(4-(4-amino-7-(4-((2-fluoroethyl)amino)cyclohex-1-en-1-yl)-1-isopropyl-1H-pyrazolo[4,3-c]pyridin-3-yl)-2-fluorophenyl)-2-chlorobenzenesulfonamide] were 0.016 µM and 0.021 µM.
Take `COc1ccc(Cl)c(S(=O)(=O)Nc2ccc(-c3nn(C(C)C)c4c(C5=CCC(NC6COC6)CC5)cnc(N)c34)cc2F)c1` (single isomer, unassigned) [Compound B8, N-(4-(4-amino-1-isopropyl-7-(4-(oxetan-3-ylamino)cyclohex-1-en-1-yl)-1H-pyrazolo[4,3-c]pyridin-3-yl)-2-fluorophenyl)-2-chloro-5-methoxybenzenesulfonamide]: the IC50 at IRE1α came to 0.0067 µM; in assay [1] (4 hour) it was 0.019 µM.
Taken in the same sequence, the figures for `CC(C)n1nc(-c2ccc(NS(=O)(=O)Cc3ccccc3Cl)c(F)c2)c2c(N)ncc(C3=CCC(NC4CC(F)(F)C4)CC3)c21` (single isomer, unassigned) [Compound B49, N-(4-(4-amino-7-(4-((3,3-difluorocyclobutyl)amino)cyclohex-1-en-1-yl)-1-isopropyl-1H-pyrazolo[4,3-c]pyridin-3-yl)-2-fluorophenyl)-1-(2-chlorophenyl)methanesulfonamide] were 0.0041 µM and 0.064 µM.
For the compound `Nc1ncc(C2=CCC(NC3COC3)CC2)c2c1c(-c1ccc(NS(=O)(=O)Cc3ccccc3Cl)c(F)c1)nn2C1CC1` (single isomer, unassigned) [Compound B23, N-(4-(4-amino-1-cyclopropyl-7-(4-(oxetan-3-ylamino)cyclohex-1-en-1-yl)-1H-pyrazolo[4,3-c]pyridin-3-yl)-2-fluorophenyl)-1-(2-chlorophenyl)methanesulfonamide], the IC50 against IRE1α was determined as 0.0031 µM; in assay [1] (4 hour) it was 0.046 µM.
In the case of `COCCN(C)[C@H]1CC[C@H](c2cnc(N)c3c(-c4cc(F)c(NS(=O)(=O)c5ccccc5F)cc4F)nn(C(C)C)c32)CC1` [Compound A36, N-(4-(4-amino-1-isopropyl-7-((1r,4r)-4-((2-methoxyethyl)(methyl)amino)cyclohexyl)-1H-pyrazolo[4,3-c]pyridin-3-yl)-2,5-difluorophenyl)-2-fluorobenzenesulfonamide], the IC50 at IRE1α is 0.013 µM; in assay [1] (Homo sapiens, ARPE-19, 4 h), 0.018 µM.
